Results from ChEMBL document CHEMBL1201862, “PubChem BioAssay data set” (2004).
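Exposure lasted 48 hours, with cells grown in 96-well plates and compounds tested at five concentrations. Abbreviation: GI50, concentration required for 50% inhibition of growth.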 Calls of active or inactive are those of the source. Cut-off read from the data, not from the text of the source: active = GI50 up to about 1.1 µM and inactive = higher.

Legend:
Experiment in all cases: DTP human tumour cell line panel, 48 h
[1] = tested on: CCRF-CEM
[2] = tested on: COLO 205
[3] = tested on: HL-60
[4] = tested on: HOP-62
[5] = tested on: HT-29
[6] = tested on: K562
[7] = tested on: KM12
[8] = tested on: Malme-3M
[9] = tested on: NCI-H226
[10] = tested on: NCI-H23
[11] = tested on: NCI-H460
[12] = tested on: OVCAR-5
[13] = tested on: OVCAR-8
[14] = tested on: SK-MEL-2
[15] = tested on: SK-OV-3
[16] = tested on: SN12C
[17] = tested on: SNB-19
[18] = tested on: SNB-75
[19] = tested on: UACC-62
[20] = tested on: UO-31

Row | SMILES | GI50 [1] | GI50 [2] | GI50 [3] | GI50 [4] | GI50 [5] | GI50 [6] | GI50 [7] | GI50 [8] | GI50 [9] | GI50 [10] | GI50 [11] | GI50 [12] | GI50 [13] | GI50 [14] | GI50 [15] | GI50 [16] | GI50 [17] | GI50 [18] | GI50 [19] | GI50 [20]
1 | CC(C)NC(=O)OCc1c(COC(=O)NC(C)C)c(-c2cc[n+](COC(=O)Cc3ccccc3)cc2)n2c1CCC2 | 38.5 µM (inactive) | > 100 µM (inactive) | 31.9 µM (inactive) | 72.9 µM (inactive) | > 100 µM (inactive) | > 100 µM (inactive) | > 100 µM (inactive) | > 100 µM (inactive) | > 100 µM (inactive) | 56.6 µM (inactive) | 52 µM (inactive) | > 100 µM (inactive) | > 100 µM (inactive) | > 100 µM (inactive) | > 100 µM (inactive) | > 100 µM (inactive) | > 100 µM (inactive) | 54.6 µM (inactive) | 56.2 µM (inactive) | > 100 µM (inactive)
2 | Cc1ccc2c3c4c(ccc13)C(C)(C)OC4=C(C(C)C)C2=O | 48.4 µM (inactive) | 31.3 µM (inactive) | 16.6 µM (inactive) | 15.6 µM (inactive) | 13.8 µM (inactive) | 59.3 µM (inactive) | 54.3 µM (inactive) | 39.3 µM (inactive) | 5.4 µM (inactive) | 70.5 µM (inactive) | 31.8 µM (inactive) | > 100 µM (inactive) | 44.7 µM (inactive) | 17 µM (inactive) | > 100 µM (inactive) | > 100 µM (inactive) | > 100 µM (inactive) | 26.4 µM (inactive) | 50.9 µM (inactive) | > 100 µM (inactive)
3 | CCN(CC)c1ccc2c(c1)Oc1ccc(N(C(C)=O)c3ccccc3)cc1C21OC(=O)c2ccccc21 (stereo not given) | 21.1 µM (inactive) | > 64.1 µM (inactive) | 8.53 µM (inactive) | > 100 µM (inactive) | 32.3 µM (inactive) | 12.6 µM (inactive) | 23 µM (inactive) | 53.3 µM (inactive) | > 100 µM (inactive) | > 68.4 µM (inactive) | 65.9 µM (inactive) | > 100 µM (inactive) | > 75.5 µM (inactive) | > 100 µM (inactive) | > 100 µM (inactive) | > 100 µM (inactive) | > 100 µM (inactive) | > 59.7 µM (inactive) | > 91.8 µM (inactive) | 23.7 µM (inactive)
4 | COc1cc(N/N=C/C#N)cc(OC)c1OC | 3.28 µM (inactive) | 4.86 µM (inactive) | 2.12 µM (inactive) | > 10 µM (inactive) | > 10 µM (inactive) | 2.44 µM (inactive) | > 10 µM (inactive) | 7.55 µM (inactive) | > 10 µM (inactive) | 4.34 µM (inactive) | > 10 µM (inactive) | > 10 µM (inactive) | > 10 µM (inactive) | > 10 µM (inactive) | > 10 µM (inactive) | > 10 µM (inactive) | > 10 µM (inactive) | 9.16 µM (inactive) | > 10 µM (inactive) | > 10 µM (inactive)
5 | CCOC(=O)c1ccc(N[C@@H]2c3cc4c(cc3C(c3cc(OC)c(O)c(OC)c3)[C@H]3C(=O)OCC32)OCO4)cc1O (stereo not given in full) | 0.211 µM (active) | 1.18 µM (inactive) | 0.133 µM (active) | 0.306 µM (active) | 0.546 µM (active) | 0.78 µM (active) | 0.579 µM (active) | 0.757 µM (active) | 0.256 µM (active) | 0.9 µM (active) | < 0.01 µM (active) | 1.06 µM (active) | 1.77 µM (inactive) | 0.809 µM (active) | 0.738 µM (active) | 1.64 µM (inactive) | 0.652 µM (active) | 0.548 µM (active) | 0.469 µM (active) | 0.34 µM (active)
6 | O=C(CCC(=O)Nc1ccccc1C(F)(F)F)N/N=C1\C(=N\NC(=O)CCC(=O)Nc2ccccc2C(F)(F)F)C(c2ccc3c(c2)OCO3)Oc2ccccc21 (stereo not given) | 4.26 µM (inactive) | > 100 µM (inactive) | 3.4 µM (inactive) | 4.28 µM (inactive) | 35.9 µM (inactive) | 3.54 µM (inactive) | 26.2 µM (inactive) | > 100 µM (inactive) | 10.6 µM (inactive) | 22.8 µM (inactive) | 4.02 µM (inactive) | > 100 µM (inactive) | 7.87 µM (inactive) | > 31.9 µM (inactive) | 20.7 µM (inactive) | 6.46 µM (inactive) | 13.2 µM (inactive) | 10 µM (inactive) | 5.46 µM (inactive) | 5.64 µM (inactive)
7 | Nc1ccc2[nH]c3c(-c4ccccc4)nccc3c2c1 | 14.1 µM (inactive) | 44 µM (inactive) | 12 µM (inactive) | > 84.5 µM (inactive) | 36.1 µM (inactive) | 24.4 µM (inactive) | 53.7 µM (inactive) | 76.4 µM (inactive) | 27.8 µM (inactive) | > 73.6 µM (inactive) | 11.3 µM (inactive) | > 88.3 µM (inactive) | 72.3 µM (inactive) | > 100 µM (inactive) | 54.2 µM (inactive) | > 87.7 µM (inactive) | > 100 µM (inactive) | 29.6 µM (inactive) | 29.2 µM (inactive) | 37.7 µM (inactive)
8 | COC(O)C(=O)c1ccc2c(c1)CC1(C2)Cc2cc3c(cc2C1=O)CCC3 (stereo not given) | 11.9 µM (inactive) | 20 µM (inactive) | 9.33 µM (inactive) | 19.5 µM (inactive) | 20.1 µM (inactive) | 2.94 µM (inactive) | 20.9 µM (inactive) | 16.2 µM (inactive) | 19.5 µM (inactive) | 24.5 µM (inactive) | 27.9 µM (inactive) | 22 µM (inactive) | > 10 µM (inactive) | 23.2 µM (inactive) | 16.7 µM (inactive) | 15.3 µM (inactive) | 18.2 µM (inactive) | 17.9 µM (inactive) | 17.9 µM (inactive) | 16.9 µM (inactive)
9 | Nc1nc(N)c2c(Cl)c(CNc3ccc(Cl)c(Cl)c3)ccc2n1 | < 0.01 µM (active) | 0.239 µM (active) | < 0.01 µM (active) | 0.0171 µM (active) | < 0.01 µM (active) | < 0.01 µM (active) | 0.0238 µM (active) | 0.471 µM (active) | 12.9 µM (inactive) | 0.0102 µM (active) | < 0.01 µM (active) | < 0.01 µM (active) | < 0.01 µM (active) | 3.11 µM (inactive) | 0.574 µM (active) | < 0.104 µM (active) | 0.486 µM (active) | 2.64 µM (inactive) | < 0.01 µM (active) | 0.0294 µM (active)
10 | O=C1C2=C(c3ccccc31)C(c1ccc(Cl)cc1)NC(S)=N2 (stereo not given) | 24.5 µM (inactive) | 25.5 µM (inactive) | 17.5 µM (inactive) | 28.2 µM (inactive) | 33.8 µM (inactive) | 19 µM (inactive) | 23.6 µM (inactive) | 28.2 µM (inactive) | 16.9 µM (inactive) | 17.3 µM (inactive) | 34.8 µM (inactive) | 46.7 µM (inactive) | 20 µM (inactive) | 23.3 µM (inactive) | 69.2 µM (inactive) | 17.2 µM (inactive) | 26.3 µM (inactive) | 15.9 µM (inactive) | 23 µM (inactive) | 14.9 µM (inactive)
11 | CN(C)CCCNc1ccc2nnn3c4ccc(O)cc4c(=O)c1c23 | 1.28 µM (inactive) | 2.51 µM (inactive) | 3.72 µM (inactive) | 3.27 µM (inactive) | 2.74 µM (inactive) | 7.26 µM (inactive) | 1.68 µM (inactive) | 10.3 µM (inactive) | 2.51 µM (inactive) | 3.56 µM (inactive) | 0.453 µM (active) | 9.98 µM (inactive) | 1.5 µM (inactive) | 12.7 µM (inactive) | 5.6 µM (inactive) | 2.95 µM (inactive) | 6.61 µM (inactive) | 3.37 µM (inactive) | 11 µM (inactive) | 2.06 µM (inactive)
12 | Nc1ncnc2c1ncn2[C@@H]1O[C@H](COP(=O)(O)O)[C@@H](O)[C@@H]1O | > 50 µM (inactive) | > 50 µM (inactive) | 14.6 µM (inactive) | > 50 µM (inactive) | > 50 µM (inactive) | > 50 µM (inactive) | > 50 µM (inactive) | > 50 µM (inactive) | > 50 µM (inactive) | > 50 µM (inactive) | > 50 µM (inactive) | > 40.7 µM (inactive) | 12.9 µM (inactive) | > 50 µM (inactive) | > 50 µM (inactive) | > 50 µM (inactive) | > 50 µM (inactive) | > 50 µM (inactive) | > 50 µM (inactive) | > 50 µM (inactive)
13 | N#Cc1cc2c(cc1C#N)/C(=N\c1cccc(N)n1)N/C2=N\c1cccc(N)n1 | 4.74 µM (inactive) | 15 µM (inactive) | 19.1 µM (inactive) | 24.3 µM (inactive) | 23.1 µM (inactive) | 13.4 µM (inactive) | 36.8 µM (inactive) | 14.3 µM (inactive) | > 100 µM (inactive) | 16.1 µM (inactive) | 22.4 µM (inactive) | > 100 µM (inactive) | 23.6 µM (inactive) | 21.6 µM (inactive) | 13.7 µM (inactive) | 32.9 µM (inactive) | 70 µM (inactive) | 15.6 µM (inactive) | 15.2 µM (inactive) | 15.7 µM (inactive)
14 | O=C(O)c1cc2c3c(c1)[C@H]1C=CC[C@H]1CN3CC1CC=CC21 (stereo not given in full) | > 100 µM (inactive) | > 100 µM (inactive) | > 100 µM (inactive) | > 100 µM (inactive) | > 100 µM (inactive) | > 100 µM (inactive) | > 100 µM (inactive) | > 100 µM (inactive) | > 100 µM (inactive) | > 100 µM (inactive) | > 100 µM (inactive) | > 100 µM (inactive) | > 100 µM (inactive) | > 100 µM (inactive) | > 100 µM (inactive) | > 100 µM (inactive) | > 100 µM (inactive) | > 100 µM (inactive) | > 100 µM (inactive) | > 100 µM (inactive)
